# Results reported in patent US6313177A, “D-mannitol derivatives as HIV aspartyl protease inhibitors” (Pharmacor Inc., priority 1999, dated 2001).
# Target: T1, recombinant HIV-1 protease (Human immunodeficiency virus type 1 group M subtype B, UniProt P04585)
# T1 construct: recombinant HIV-1 protease; purchased Bachem Bioscience
# Assay: Fluorometric (FRET) enzymatic assay for the inhibition constant (Ki) against the HIV protease
# Assay type: biochemical
# Conditions: not given
# Text: Enzymatic Assay for Determining the Inhibition Constant (Ki) of Synthetic Compounds Prepared Against the HIV Protease
# This is a fluorometric assay based on the cleavage by protease of a substrate carrying a donor group (EDANS, excitation at 340 nm and emission at 490 nm) and an acceptor group (DABCYL) on each side of the cleavage site, interacting together through fluorescence resonance energy transfer (FRET). Cleavage of the substrate by protease stops energy exchange between the two groups, resulting in a time-dependent increase in fluorescence intensity that is linearly related to the extent of substrate hydrolysis.
# The enzymatic assay is done at 30° C. in a spectrophotometer microcuvet, in a total volume of 400 μL. The apparatus used for readings is a UV-visible Cary 1 spectrophotometer made by Varian. The reaction is run first in the absence of protease inhibitors for 2 min, using 355 μL of buffer at pH 4.7 (sodium acetate 100 mM, NaCl 1 M, EDTA 1 mM, DTT 1 mM, dimethylsulfoxide 10%, and BSA 1 mg/mL), 40 μL of substrate H-2930 from Molecular Probes (final concentration 10 μM) and 5 μL of recombinant HIV-1 protease (final concentration 18.3 nM) purchased from Bachem Bioscience. Fluorescence readings at […] are taken continuously during the reaction, allowing determination of the enzyme's initial velocity (v0). At the end of the 2 min incubation, the potential inhibitor at a defined concentration in a volume of 2 μL is added to the reaction, and fluorescence readings are taken for another 2 min, allowing determination of enzyme velocity (vi) in the presence of the inhibitory compound. Several concentrations of the putative inhibitors are tested in the assay. After calculation of vo and vi, the inhibition constant (Ki) of the compound is determined using the equation of Henderson: [formula]
# and [I]=inhibitor concentration, [S ]=substrate concentration, Km=Michaelis-Menten constant, Kiapp =apparent Ki
# Note that the Michaelis-Menten constant of HIV protease is determined by running the assay without inhibitors, using several concentrations of substrate, and plotting the results as a Cornish-Bowden graph with the ratio substrate concentration/velocity as the ordinate and substrate concentration as the abscissa.
row,Ki,SMILES
1,5.2 µM,"O[C@@H]([C@H](O)[C@@H](COCc1ccc(Cl)cc1)OCc1ccccc1)[C@@H](COCc1ccc(Cl)cc1)OCc1ccccc1 [Compound 55, 1,6-di-O-(4-chlorobenzyl)-2,5-di-O-benzyl-D-mannitol]"

# Same assay, conditions: Table 1, benzylated D-mannitol derivatives; pH 4.7, 30° C., substrate 10 μM, protease 18.3 nM
row,SMILES,Ki
1,"Cc1ccc(CO[C@H](COCc2ccccc2F)[C@@H](O)[C@H](O)[C@@H](COCc2ccccc2F)OCc2ccc(C)cc2)cc1 [Compound 56, 1,6-di-O-(2-fluorobenzyl)-2,5-di-O-(4-methylbenzyl)-D-mannitol]",3.5 µM
2,"O[C@@H]([C@H](O)[C@@H](COCc1ccccc1F)OCc1cccc(F)c1)[C@@H](COCc1ccccc1F)OCc1cccc(F)c1 [Compound 57, 1,6-di-O-(2-fluorobenzyl)-2,5-di-O-(3-fluorobenzyl)-D-mannitol]",1.5 µM
3,"O[C@@H]([C@H](O)[C@@H](COCc1ccc(OCc2ccccc2)cc1)OCc1ccc(F)cc1)[C@@H](COCc1ccc(OCc2ccccc2)cc1)OCc1ccc(F)cc1 [Compound 58, 1,6-di-O-(4-benzyloxybenzyl)-2,5-di-O-(4-fluorobenzyl)-D-mannitol]",5 µM
4,"O[C@@H]([C@H](O)[C@@H](COCc1ccccc1F)OCc1ccc(F)cc1)[C@@H](COCc1ccccc1)OCc1ccc(F)cc1 [Compound 63, 1-O-benzyl-6-O-(2-fluorobenzyl)-2,5-di-O-(4-fluorobenzyl)-D-mannitol]",0.89 µM
5,"Oc1ccc(COC[C@@H](OCc2ccc(F)cc2)[C@@H](O)[C@H](O)[C@@H](COCc2ccc(OCc3ccccc3)cc2)OCc2ccc(F)cc2)cc1 [Compound 76, 1-O-(4-hydroxybenzyl)-6-O-(4-benzyloxybenzyl)-2,5-di-O-(4-fluorobenzyl)-D-mannitol]",0.9 µM

# More lines, now with the values ahead:
row,Ki,SMILES
1,1.5 µM,"O[C@@H]([C@H](O)[C@@H](COCc1cccc(F)c1)OCc1ccccc1)[C@@H](COCc1cccc(F)c1)OCc1ccccc1 [Compound 53, 1,6-di-O-(3-fluorobenzyl)-2,5-di-O-(benzyl)-D-mannitol]"
2,> 3 µM,"O[C@@H]([C@H](O)[C@@H](COCc1ccc(Br)cc1)OCc1ccccc1)[C@@H](COCc1ccc(Br)cc1)OCc1ccccc1 [Compound 54, 1,6-di-O-(4-bromobenzyl)-2,5-di-O-benzyl-D-mannitol]"
3,1.4 µM,"COC(=O)c1ccc(CO[C@H](COCc2ccccc2)[C@@H](O)[C@H](O)[C@@H](COCc2ccccc2)OCc2ccc(C(=O)O)cc2)cc1 [Compound 59, 1,6-di-O-benzyl-2-O-(4-carboxybenzyl)-5-O-(4-carbomethoxybenzyl)-D-mannitol]"
4,13 µM,"N#Cc1ccc(CO[C@H](COCc2ccccc2)[C@@H](O)[C@H](O)[C@@H](COCc2ccccc2)OCc2ccc(C(N)=O)cc2)cc1 [Compound 60, 1,6-di-O-benzyl-2-O-(4-cyanobenzyl)-5-O-(4-carboxamidobenzyl)-D-mannitol]"
5,23 µM,O=[N+]([O-])c1ccc(CO[C@H](COCc2ccccc2)[C@@H](O)[C@H](O)[C@@H](COCc2ccccc2)OCc2ccccc2)cc1 [Compound 61]
6,0.22 µM,"O[C@@H]([C@H](O)[C@@H](COCc1ccccc1F)OCc1ccc(F)cc1)[C@@H](COCc1ccccc1F)OCc1ccccc1 [Compound 62, 1,6-di-O-(2-fluorobenzyl)-2-O-benzyl-5-O-(4-fluorobenzyl)-D-mannitol]"

# Same assay, conditions: Table 2, tetra-substituted D-mannitol derivatives; pH 4.7, 30° C., substrate 10 μM, protease 18.3 nM
row,SMILES,Ki
1,"C=CCOC[C@@H](OCC=C)[C@@H](O)[C@H](O)[C@@H](COCC=C)OCC=C [Compound 78, 1,2,5,6-tetra-O-allyl-D-mannitol]",190 µM
2,"O[C@@H]([C@H](O)[C@@H](COCC1CC1)OCC1CC1)[C@@H](COCC1CC1)OCC1CC1 [Compound 79, 1,2,5,6-tetra-O-cyclopropylmethyl-D-mannitol]",21 µM
3,"C=CCO[C@H](COCc1ccccc1)[C@@H](O)[C@H](O)[C@@H](COCc1ccccc1)OCC=C [Compound 82, 1,6-di-O-benzyl-2,5-di-O-allyl-D-mannitol]",11 µM
4,"O[C@@H]([C@H](O)[C@@H](COCc1ccccc1)OCC1CC1)[C@@H](COCc1ccccc1)OCC1CC1 [Compound 83, 1,6-di-O-benzyl-2,5-di-O-cyclopropylmethyl-D-mannitol]",9 µM
5,"O[C@@H]([C@H](O)[C@@H](COCC1CC1)OCc1ccccc1)[C@@H](COCC1CC1)OCc1ccccc1 [Compound 89, 1,6-di-O-cyclopropylmethyl-2,5-di-O-dibenzyl-D-mannitol]",16 µM
6,"C=CCOC[C@@H](OCc1ccccc1)[C@@H](O)[C@H](O)[C@@H](COCC=C)OCc1ccccc1 [Compound 90, 1,6-di-O-allyl-2,5-di-O-benzyl-D-mannitol]",12 µM
7,"O[C@@H]([C@H](O)[C@@H](COCc1cccs1)OCc1ccc(F)cc1)[C@@H](COCc1cccs1)OCc1ccc(F)cc1 [Compound 93, 1,6-di-O-(2-thienylmethyl)-2,5-di-O-(4-fluorophenylmethyl)-D-mannitol]",0.4 µM
8,"O[C@@H]([C@H](O)[C@@H](COCc1ccccc1F)OCc1cccs1)[C@@H](COCc1ccccc1F)OCc1ccc(F)cc1 [Compound 97, 1,6-di-O-(2-fluorobenzyl)-2-O-(4-fluorobenzyl)-5-O-(2-thienylmethyl)-D-mannitol]",0.23 µM

# More lines, now with the values ahead:
row,Ki,SMILES
1,> 1.25 µM,"O[C@@H]([C@H](O)[C@@H](COCc1ccccc1)OCc1ccc2ccccc2c1)[C@@H](COCc1ccccc1)OCc1ccc2ccccc2c1 [Compound 80, 1,6-di-O-benzyl-2,5-di-O-(2-naphthylmethyl)-D-mannitol]"
2,> 1 µM,"O[C@@H]([C@H](O)[C@@H](COCc1ccccc1)OCC=Cc1ccccc1)[C@@H](COCc1ccccc1)OCC=Cc1ccccc1 [Compound 84, 1,6-di-O-benzyl, 2,5-di-O-cinnamyl-D-mannitol]"
3,> 50 µM,"O[C@@H]([C@H](O)[C@@H](COCc1ccccc1)OCc1ccncc1)[C@@H](COCc1ccccc1)OCc1ccncc1 [Compound 86, 1,6-di-O-benzyl-2,5-di-O-(4-pyridylmethyl)-D-mannitol]"
4,28 µM,"O[C@@H]([C@H](O)[C@@H](COCc1ccccc1)OCc1ccccn1)[C@@H](COCc1ccccc1)OCc1ccccn1 [Compound 88, 1,6-di-O-benzyl-2,5-di-O-(2-pyridylmethyl)-D-mannitol]"
5,> 1 µM,"O[C@@H]([C@H](O)[C@@H](COCC=Cc1ccccc1)OCc1ccccc1)[C@@H](COCC=Cc1ccccc1)OCc1ccccc1 [Compound 94, 1,6-di-O-cinnamyl-2,5-di-O-benzyl-D-mannitol]"
6,0.23 µM,"O[C@@H]([C@H](O)[C@@H](COCc1ccccc1)OCc1cccs1)[C@@H](COCc1ccccc1)OCc1ccc(F)cc1 [Compound 96, 1,6-di-O-benzyl-2-O-(4-fluorobenzyl)-5-O-(2-thienylmethyl)-D-mannitol]"

# Same assay, conditions: Table 3, di- and tri-substituted D-mannitol derivatives; pH 4.7, 30° C., substrate 10 μM, protease 18.3 nM
row,Ki,SMILES
1,33 µM,"O[C@@H]([C@H](O)[C@@H](COCc1ccccc1)OCc1ccccc1)[C@H](O)COCc1ccccc1 [Compound 98, 1,2,6-tri-O-benzyl-D-mannitol]"
2,45 µM,"O=[N+]([O-])c1ccc(CO[C@H](COCc2ccccc2)[C@@H](O)[C@H](O)[C@H](O)COCc2ccccc2)cc1 [Compound 99, 1,6-di-O-benzyl-2-O-(4-nitrobenzyl)-D-mannitol]"
3,> 5 µM,"CSC(=S)O[C@H](COCc1ccccc1)[C@@H](O)[C@H](O)[C@@H](COCc1ccccc1)OC(=S)SC [Compound 101, 1,6-di-O-benzyl-2,5-di-O-(methylthiothioxo)-D-mannitol]"
4,> 5 µM,"CSC(=S)O[C@H](COCc1ccccc1)[C@@H](O)[C@H](O)[C@@H](COCc1ccccc1)OCc1ccc(F)cc1 [Compound 106, 1,6-di-O-benzyl-2-O-(4-fluorobenzyl)-5-O-(methylthiothioxo)-D-mannitol]"
5,10 µM,"O=C(O[C@H](COCc1ccccc1)[C@@H](O)[C@H](O)[C@@H](COCc1ccccc1)OC(=O)c1ccccc1)c1ccccc1 [Compound 109, 1,6-di-O-benzyl-2,5-di-O-benzoyl-D-mannitol]"
